SMILES strings stand for the structures.

We go through 26 molecules from US10988445B2 (AstraZeneca AB, priority 2015, dated 2021).

In one test the test system is human TH17 cells. Nature of the test: Inhibition of IL-17 release from human TH17 cells. The test is classed as cell-based. Particulars: Homo sapiens, 96 h, isolated human TH17 cells, 4 days culture, IL-17A by HTRF; read-out: pIC50 IL-17 release (converted). The text has this: Inhibition of IL-17 Release from Human TH17 Cells (IL-17 Release)
This test is designed to screen compounds for their inhibitory effect on the release of IL-17 from isolated and cultured human TH17 cells.
Peripheral blood mononuclear cells (PBMC) were isolated from heparin treated human whole blood fromhealthy donors by density gradient centrifugation. TH17 cells (CD4+CXCR3-CCR6+) were enriched using a human TH17 Cell Enrichment Kit (Stemcell Technologies) according to the manufacturer's protocol. […] On day 4 supernatants were collected and IL-17A was measured using a Human IL-17 HTRF Assay kit (Cisbio Bioassays) according to the manufacturer's protocol. […] Results
(Time-resolved FRET reads energy transfer from a long-lived donor to a nearby acceptor.)
Consider `CC1(C(=O)N2Cc3cc(S(C)(=O)=O)ccc3C2C(=O)Nc2ccc(C(O)(C(F)(F)F)C(F)(F)F)cc2)CCO1` (racemic) [Example 445], for which the IC50 was 25.1 nM. Same read-out and setting: to `CO[C@H](C)C(=O)N1Cc2cc(S(C)(=O)=O)ccc2C1C(=O)Nc1ccc(C(O)(C(F)(F)F)C(F)(F)F)cc1` (mixture of isomers) [Example 449, N-[4-(1,1,1,3,3,3-Hexafluoro-2-hydroxypropan-2-yl)phenyl]-2-[(2R)-2-methoxypropanoyl]-5-(methylsulfonyl)-2,3-dihydro-1H-isoindole-1-carboxamide] belongs 79.4 nM; to `CC[C@@H](O)C(=O)N1Cc2cc(S(C)(=O)=O)ccc2C1C(=O)Nc1ccc(C(O)(C(F)(F)F)C(F)(F)F)cc1` (single isomer, unassigned) [Example 409, isomer 1], 63.1 nM. Still for that read-out and setting: under `CC(C)[C@@H](O)C(=O)N1Cc2cc(S(C)(=O)=O)ccc2C1C(=O)Nc1ccc(C(O)(C(F)(F)F)C(F)(F)F)cc1` (single isomer, unassigned) [Example 422] stands 39.8 nM; under `CC(C)[C@H](O)C(=O)N1Cc2cc(S(C)(=O)=O)ccc2C1C(=O)Nc1ccc(C(O)(C(F)(F)F)C(F)(F)F)cc1` (single isomer, unassigned) [Example 423], 79.4 nM.

For `CCS(=O)(=O)c1ccc2c(c1)CNC2C(=O)Nc1ccc(C(O)(C(F)(F)F)C(F)(F)F)cc1` (centres unmarked) [Example 100, 5-(Ethylsulfonyl)-N-[4-(1,1,1,3,3,3-hexafluoro-2-hydroxypropan-2-yl)phenyl]-2,3-dihydro-1H-isoindole-1-carboxamide], the IC50 was 39.8 nM.

Turning to `CCS(=O)(=O)c1ccc2c(c1)CN(C(=O)C(F)(F)C1CC1)C2C(=O)Nc1ccc(C(O)(C(F)(F)F)C(F)(F)F)cc1` (centres unmarked) [Example 104, 2-[Cyclopropyl(difluoro)acetyl]-5-(ethylsulfonyl)-N-[4-(1,1,1,3,3,3-hexafluoro-2-hydroxypropan-2-yl)phenyl]-2,3-dihydro-1H-isoindole-1-carboxamide], the IC50 was 20 nM. On the same count and under the same terms, to `CCS(=O)(=O)c1ccc2c(c1)CN(C(=O)C1(C#N)CC1)C2C(=O)Nc1ccc(C(O)(C(F)(F)F)C(F)(F)F)cc1` (centres unmarked) [Example 105, 2-[(1-Cyanocyclopropyl)carbonyl]-5-(ethylsulfonyl)-N-[4-(1,1,1,3,3,3-hexafluoro-2-hydroxypropan-2-yl)phenyl]-2,3-dihydro-1H-isoindole-1-carboxamide] belongs 20 nM; to `CCS(=O)(=O)c1ccc2c(c1)CN(C(=O)CC(C)(C)O)C2C(=O)Nc1ccc(C(O)(C(F)(F)F)C(F)(F)F)cc1` (centres unmarked) [Example 106, 5-(Ethylsulfonyl)-N-[4-(1,1,1,3,3,3-hexafluoro-2-hydroxypropan-2-yl)phenyl]-2-(3-hydroxy-3-methylbutanoyl)-2,3-dihydro-1H-isoindole-1-carboxamide], 63.1 nM. Consider `CCS(=O)(=O)c1ccc2c(c1)CN(C(=O)CC1(O)CC1)C2C(=O)Nc1ccc(C(O)(C(F)(F)F)C(F)(F)F)cc1` (centres unmarked) [Example 107, 5-(Ethylsulfonyl)-N-[4-(1,1,1,3,3,3-hexafluoro-2-hydroxypropan-2-yl)phenyl]-2-[(1-hydroxycyclopropyl)acetyl]-2,3-dihydro-1H-isoindole-1-carboxamide], for which the IC50 was 50.1 nM. The same measure, in the same setting: to `CCS(=O)(=O)c1ccc2c(c1)CN(C(=O)CC1CCC1)C2C(=O)Nc1ccc(C(O)(C(F)(F)F)C(F)(F)F)cc1` (centres unmarked) [Example 109, 2-(Cyclobutylacetyl)-5-(ethylsulfonyl)-N-[4-(1,1,1,3,3,3-hexafluoro-2-hydroxypropan-2-yl)phenyl]-2,3-dihydro-1H-isoindole-1-carboxamide] belongs 20 nM; to `CCS(=O)(=O)c1ccc2c(c1)CN(C(=O)CC1(OC)CC1)C2C(=O)Nc1ccc(C(O)(C(F)(F)F)C(F)(F)F)cc1` (centres unmarked) [Example 112, 5-(Ethylsulfonyl)-N-[4-(1,1,1,3,3,3-hexafluoro-2-hydroxypropan-2-yl)phenyl]-2-[(1-methoxycyclopropyl)acetyl]-2,3-dihydro-1H-isoindole-1-carboxamide], 31.6 nM; to `CCS(=O)(=O)c1ccc2c(c1)CN(C(=O)C1CCOC1)C2C(=O)Nc1ccc(C(O)(C(F)(F)F)C(F)(F)F)cc1` (centres unmarked) [Example 113, 5-(Ethylsulfonyl)-N-[4-(1,1,1,3,3,3-hexafluoro-2-hydroxypropan-2-yl)phenyl]-2-(tetrahydrofuran-3-ylcarbonyl)-2,3-dihydro-1H-isoindole-1-carboxamide], 79.4 nM. Take `CCS(=O)(=O)c1ccc2c(c1)CN(C(=O)C1CCCO1)C2C(=O)Nc1ccc(C(O)(C(F)(F)F)C(F)(F)F)cc1` (centres unmarked) [Example 114, 5-(Ethylsulfonyl)-N-[4-(1,1,1,3,3,3-hexafluoro-2-hydroxypropan-2-yl)phenyl]-2-(tetrahydrofuran-2-ylcarbonyl)-2,3-dihydro-1H-isoindole-1-carboxamide]: the IC50 is 31.6 nM. The same measure, in the same setting: to `CCS(=O)(=O)c1ccc2c(c1)CN(C(=O)CC1(N(C)C)CC1)C2C(=O)Nc1ccc(C(O)(C(F)(F)F)C(F)(F)F)cc1` (centres unmarked) [Example 115, 2-{[1-(Dimethylamino)cyclopropyl]acetyl}-5-(ethylsulfonyl)-N-[4-(1,1,1,3,3,3-hexafluoro-2-hydroxypropan-2-yl)phenyl]-2,3-dihydro-1H-isoindole-1-carboxamide] belongs 63.1 nM; to `CCS(=O)(=O)c1ccc2c(c1)CN(C(=O)CC#N)C2C(=O)Nc1ccc(C(O)(C(F)(F)F)C(F)(F)F)cc1` (centres unmarked) [Example 116, 2-(Cyanoacetyl)-5-(ethylsulfonyl)-N-[4-(1,1,1,3,3,3-hexafluoro-2-hydroxypropan-2-yl)phenyl]-2,3-dihydro-1H-isoindole-1-carboxamide], 200 nM; to `CCS(=O)(=O)c1ccc2c(c1)CN(C(=O)C1(CO)CC1)C2C(=O)Nc1ccc(C(O)(C(F)(F)F)C(F)(F)F)cc1` (centres unmarked) [Example 117, 5-(Ethylsulfonyl)-N-[4-(1,1,1,3,3,3-hexafluoro-2-hydroxypropan-2-yl)phenyl]-2-{[1-(hydroxymethyl)cyclopropyl]carbonyl}-2,3-dihydro-1H-isoindole-1-carboxamide], 79.4 nM. With `O=C(Nc1ccc(C(O)(C(F)(F)F)C(F)(F)F)cc1)C1NCc2cc(S(=O)(=O)CC3CC3)ccc21` (centres unmarked) [Example 200, 5-[(Cyclopropylmethyl)sulfonyl]-N-[4-(1,1,1,3,3,3-hexafluoro-2-hydroxypropan-2-yl)phenyl]-2,3-dihydro-1H-isoindole-1-carboxamide], the IC50 is 31.6 nM. On the same count and under the same terms, to `CCOC(=O)N1Cc2cc(S(=O)(=O)CC3CC3)ccc2C1C(=O)Nc1ccc(C(O)(C(F)(F)F)C(F)(F)F)cc1` (centres unmarked) [Example 204, Ethyl 5-[(cyclopropylmethyl)sulfonyl]-1-{[4-(1,1,1,3,3,3-hexafluoro-2-hydroxypropan-2-yl)phenyl]carbamoyl}-1,3-dihydro-2H-isoindole-2-carboxylate] belongs 7.94 nM; to `COC1(CC(=O)N2Cc3cc(S(=O)(=O)CC4CC4)ccc3C2C(=O)Nc2ccc(C(O)(C(F)(F)F)C(F)(F)F)cc2)CC1` (centres unmarked) [Example 205, 5-[(Cyclopropylmethyl)sulfonyl]-N-[4-(1,1,1,3,3,3-hexafluoro-2-hydroxypropan-2-yl)phenyl]-2-[(1-methoxycyclopropyl)acetyl]-2,3-dihydro-1H-isoindole-1-carboxamide], 15.8 nM.

Still in this test, the particulars now being: isolated human TH17 cells, 4 days culture, IL-17A by HTRF; listed as 303, isomer 1.
In the case of `CC[C@@H](O)C(=O)N1Cc2cc(S(=O)(=O)NC)ccc2C1C(=O)Nc1ccc(C(O)(C(F)(F)F)C(F)(F)F)cc1` (single isomer, unassigned) [Example 303, isomer 1], the “pIC50 IL-17 release” value is on record as 6.7.

Staying with this test, now noted: isolated human TH17 cells, 4 days culture, IL-17A by HTRF; listed as 303, isomer 2.
With `CC[C@@H](O)C(=O)N1Cc2cc(S(=O)(=O)NC)ccc2C1C(=O)Nc1ccc(C(O)(C(F)(F)F)C(F)(F)F)cc1` (single isomer, unassigned) [Example 303, isomer 2], the “pIC50 IL-17 release” value is 7.5.

Still in this test, the particulars now being: isolated human TH17 cells, 4 days culture, IL-17A by HTRF; listed as 307, isomer 1.
Turning to `CC[C@H](O)C(=O)N1Cc2cc(S(=O)(=O)NC)ccc2C1C(=O)Nc1ccc(C(O)(C(F)(F)F)C(F)(F)F)cc1` (single isomer, unassigned) [Example 307, isomer 1, (R) or (S)N-[4-(1,1,1,3,3,3-Hexafluoro-2-hydroxypropan-2-yl)phenyl]-2-[(2S)-2-hydroxybutanoyl]-5-(methylsulfamoyl)-2,3-dihydro-1H-isoindole-1-carboxamide], the “pIC50 IL-17 release” value turned out to be 7.5.

Still in this test, the particulars now being: isolated human TH17 cells, 4 days culture, IL-17A by HTRF; listed as 307, isomer 2.
For `CC[C@H](O)C(=O)N1Cc2cc(S(=O)(=O)NC)ccc2C1C(=O)Nc1ccc(C(O)(C(F)(F)F)C(F)(F)F)cc1` (single isomer, unassigned) [Example 307, isomer 2, (R) or (S)N-[4-(1,1,1,3,3,3-Hexafluoro-2-hydroxypropan-2-yl)phenyl]-2-[(2S)-2-hydroxybutanoyl]-5-(methylsulfamoyl)-2,3-dihydro-1H-isoindole-1-carboxamide], the “pIC50 IL-17 release” value is listed as 6.5.

The test is the same for the next values; noted with them: isolated human TH17 cells, 4 days culture, IL-17A by HTRF; listed as 452, isomer 1.
For the molecule `CC1(C(=O)N2Cc3cc(S(C)(=O)=O)ccc3[C@@H]2C(=O)Nc2ccc(C(O)(C(F)(F)F)C(F)(F)F)cc2)CCO1` (single isomer, unassigned) [Example 452, isomer 1], the “pIC50 IL-17 release” value is reported as 7.7.

Still in this test, the particulars now being: isolated human TH17 cells, 4 days culture, IL-17A by HTRF; listed as 452, isomer 2.
As to `CC1(C(=O)N2Cc3cc(S(C)(=O)=O)ccc3[C@@H]2C(=O)Nc2ccc(C(O)(C(F)(F)F)C(F)(F)F)cc2)CCO1` (single isomer, unassigned) [Example 452, isomer 2], the “pIC50 IL-17 release” value is 7.3.
